Measurements reported in patent EP0726263A2, “Herbicidal (1,3,4)oxadiazoles and thiadiazoles” (American Cyanamid Company, priority 1995, dated 1996).

Key:
Assay type in all cases: in vivo
Abutilon theophrasti [1] = experiment: Herbicidal activity, preemergence test; settings: pre; sprayed onto soil, 800 g of active material per hectare; evaluated 3 weeks after treatment
Protocol: (§1) To evaluate their herbicidal activity, compounds according to the invention are tested using a representative range of plants: TRZAW Triticum aestivum HORVW Hordeum vulgare ZEAMX Zea mays GOSHI Gossypium hirsutum HELAN Helianthus annuus GLYMA Glycine max ALOMY Alopecurus myosuroides SETVI Setaria viridis ECHCG Echinochloa crus-galli GALAP Galium aparine STEME Stellaria media VERPE Veronica persica VIOAR Viola arvensis IPOHE Ipomoea hederacea LAMPU Lamium purpureum PAPRH Papaver rhoeas MATIN Matricaria inodora AMARE Amaranthus retroflexus ABUTH Abutilon theophrasti AMBEL Ambrosia artemisifolia CHEAL Chenopodium album
(§2) The tests fall into two categories, preemergence and postemergence. The preemergence tests involve spraying a liquid formulation of the compound onto the soil in which the seeds have recently been sown. The postemergence tests involve spraying a liquid formulation of the compound onto seedling plants.
(§3) The soil used in the tests is a prepared horticultural loam.
(§4) The formulations used in the tests are prepared from solutions of the test compounds in acetone containing 0.4% by weight of an alkylphenol/ethylene oxide condensate available under the trade mark TRITON X-155. These acetone solutions are diluted with water and the resulting formulations applied at dosage levels corresponding to 800 g of active material per hectare in a volume equivalent to 900 litres per hectare.
(§5) In the preemergence tests untreated sown soil and in the postemergence tests untreated soil bearing seedling plants are used as controls.
(§6) Results of herbicide evaluation are expressed on a rating scale (0-9). The scale is based upon a visual observation of plant stand, vigor, malformation, size, chlorosis, and general plant appearance as compared to a control. Preemergence and postemergence treatments are evaluated at 3 and 2 weeks after treatment, respectively.

Alopecurus myosuroides [2] = experiment: Herbicidal activity, preemergence test; settings: pre; sprayed onto soil, 800 g of active material per hectare; evaluated 3 weeks after treatment
Protocol: as §1, §2, §3, §4, §5, §6

Amaranthus retroflexus [3] = experiment: Herbicidal activity, preemergence test; settings: pre; sprayed onto soil, 800 g of active material per hectare; evaluated 3 weeks after treatment
Protocol: as §1, §2, §3, §4, §5, §6

Ambrosia artemisifolia [4] = experiment: Herbicidal activity, preemergence test; settings: pre; sprayed onto soil, 800 g of active material per hectare; evaluated 3 weeks after treatment
Protocol: as §1, §2, §3, §4, §5, §6

Chenopodium album [5] = experiment: Herbicidal activity, preemergence test; settings: pre; sprayed onto soil, 800 g of active material per hectare; evaluated 3 weeks after treatment
Protocol: as §1, §2, §3, §4, §5, §6

Galium aparine [6] = experiment: Herbicidal activity, preemergence test; settings: pre; sprayed onto soil, 800 g of active material per hectare; evaluated 3 weeks after treatment
Protocol: as §1, §2, §3, §4, §5, §6

Glycine max [7] = experiment: Herbicidal activity, preemergence test; settings: pre; sprayed onto soil, 800 g of active material per hectare; evaluated 3 weeks after treatment
Protocol: as §1, §2, §3, §4, §5, §6

Gossypium hirsutum [8] = experiment: Herbicidal activity, preemergence test; settings: pre; sprayed onto soil, 800 g of active material per hectare; evaluated 3 weeks after treatment
Protocol: as §1, §2, §3, §4, §5, §6

Hordeum vulgare [9] = experiment: Herbicidal activity, preemergence test; settings: pre; sprayed onto soil, 800 g of active material per hectare; evaluated 3 weeks after treatment
Protocol: as §1, §2, §3, §4, §5, §6

Ipomoea hederacea [10] = experiment: Herbicidal activity, preemergence test; settings: pre; sprayed onto soil, 800 g of active material per hectare; evaluated 3 weeks after treatment
Protocol: as §1, §2, §3, §4, §5, §6

Lamium purpureum [11] = experiment: Herbicidal activity, preemergence test; settings: pre; sprayed onto soil, 800 g of active material per hectare; evaluated 3 weeks after treatment
Protocol: as §1, §2, §3, §4, §5, §6

Matricaria inodora [12] = experiment: Herbicidal activity, preemergence test; settings: pre; sprayed onto soil, 800 g of active material per hectare; evaluated 3 weeks after treatment
Protocol: as §1, §2, §3, §4, §5, §6

Papaver rhoeas [13] = experiment: Herbicidal activity, preemergence test; settings: pre; sprayed onto soil, 800 g of active material per hectare; evaluated 3 weeks after treatment
Protocol: as §1, §2, §3, §4, §5, §6

Setaria viridis [14] = experiment: Herbicidal activity, preemergence test; settings: pre; sprayed onto soil, 800 g of active material per hectare; evaluated 3 weeks after treatment
Protocol: as §1, §2, §3, §4, §5, §6

Stellaria media [15] = experiment: Herbicidal activity, preemergence test; settings: pre; sprayed onto soil, 800 g of active material per hectare; evaluated 3 weeks after treatment
Protocol: as §1, §2, §3, §4, §5, §6

Triticum aestivum [16] = experiment: Herbicidal activity, preemergence test; settings: pre; sprayed onto soil, 800 g of active material per hectare; evaluated 3 weeks after treatment
Protocol: as §1, §2, §3, §4, §5, §6

Veronica persica [17] = experiment: Herbicidal activity, preemergence test; settings: pre; sprayed onto soil, 800 g of active material per hectare; evaluated 3 weeks after treatment
Protocol: as §1, §2, §3, §4, §5, §6

Zea mays [18] = experiment: Herbicidal activity, preemergence test; settings: pre; sprayed onto soil, 800 g of active material per hectare; evaluated 3 weeks after treatment
Protocol: as §1, §2, §3, §4, §5, §6

Abutilon theophrasti [19] = experiment: Herbicidal activity, postemergence test; settings: post; sprayed onto seedling plants, 800 g of active material per hectare; evaluated 2 weeks after treatment
Protocol: as §1, §2, §3, §4, §5, §6

Alopecurus myosuroides [20] = experiment: Herbicidal activity, postemergence test; settings: post; sprayed onto seedling plants, 800 g of active material per hectare; evaluated 2 weeks after treatment
Protocol: as §1, §2, §3, §4, §5, §6

Amaranthus retroflexus [21] = experiment: Herbicidal activity, postemergence test; settings: post; sprayed onto seedling plants, 800 g of active material per hectare; evaluated 2 weeks after treatment
Protocol: as §1, §2, §3, §4, §5, §6

Ambrosia artemisifolia [22] = experiment: Herbicidal activity, postemergence test; settings: post; sprayed onto seedling plants, 800 g of active material per hectare; evaluated 2 weeks after treatment
Protocol: as §1, §2, §3, §4, §5, §6

Chenopodium album [23] = experiment: Herbicidal activity, postemergence test; settings: post; sprayed onto seedling plants, 800 g of active material per hectare; evaluated 2 weeks after treatment
Protocol: as §1, §2, §3, §4, §5, §6

Galium aparine [24] = experiment: Herbicidal activity, postemergence test; settings: post; sprayed onto seedling plants, 800 g of active material per hectare; evaluated 2 weeks after treatment
Protocol: as §1, §2, §3, §4, §5, §6

Glycine max [25] = experiment: Herbicidal activity, postemergence test; settings: post; sprayed onto seedling plants, 800 g of active material per hectare; evaluated 2 weeks after treatment
Protocol: as §1, §2, §3, §4, §5, §6

Gossypium hirsutum [26] = experiment: Herbicidal activity, postemergence test; settings: post; sprayed onto seedling plants, 800 g of active material per hectare; evaluated 2 weeks after treatment
Protocol: as §1, §2, §3, §4, §5, §6

Hordeum vulgare [27] = experiment: Herbicidal activity, postemergence test; settings: post; sprayed onto seedling plants, 800 g of active material per hectare; evaluated 2 weeks after treatment
Protocol: as §1, §2, §3, §4, §5, §6

Ipomoea hederacea [28] = experiment: Herbicidal activity, postemergence test; settings: post; sprayed onto seedling plants, 800 g of active material per hectare; evaluated 2 weeks after treatment
Protocol: as §1, §2, §3, §4, §5, §6

Lamium purpureum [29] = experiment: Herbicidal activity, postemergence test; settings: post; sprayed onto seedling plants, 800 g of active material per hectare; evaluated 2 weeks after treatment
Protocol: as §1, §2, §3, §4, §5, §6

Matricaria inodora [30] = experiment: Herbicidal activity, postemergence test; settings: post; sprayed onto seedling plants, 800 g of active material per hectare; evaluated 2 weeks after treatment
Protocol: as §1, §2, §3, §4, §5, §6

Papaver rhoeas [31] = experiment: Herbicidal activity, postemergence test; settings: post; sprayed onto seedling plants, 800 g of active material per hectare; evaluated 2 weeks after treatment
Protocol: as §1, §2, §3, §4, §5, §6

Setaria viridis [32] = experiment: Herbicidal activity, postemergence test; settings: post; sprayed onto seedling plants, 800 g of active material per hectare; evaluated 2 weeks after treatment
Protocol: as §1, §2, §3, §4, §5, §6

Stellaria media [33] = experiment: Herbicidal activity, postemergence test; settings: post; sprayed onto seedling plants, 800 g of active material per hectare; evaluated 2 weeks after treatment
Protocol: as §1, §2, §3, §4, §5, §6

Triticum aestivum [34] = experiment: Herbicidal activity, postemergence test; settings: post; sprayed onto seedling plants, 800 g of active material per hectare; evaluated 2 weeks after treatment
Protocol: as §1, §2, §3, §4, §5, §6

Veronica persica [35] = experiment: Herbicidal activity, postemergence test; settings: post; sprayed onto seedling plants, 800 g of active material per hectare; evaluated 2 weeks after treatment
Protocol: as §1, §2, §3, §4, §5, §6

Zea mays [36] = experiment: Herbicidal activity, postemergence test; settings: post; sprayed onto seedling plants, 800 g of active material per hectare; evaluated 2 weeks after treatment
Protocol: as §1, §2, §3, §4, §5, §6

Compound | ABUTH control rating (0-9) (Abutilon theophrasti [1]) | ALOMY control rating (0-9) (Alopecurus myosuroides [2]) | AMARE control rating (0-9) (Amaranthus retroflexus [3]) | AMBEL control rating (0-9) (Ambrosia artemisifolia [4]) | CHEAL control rating (0-9) (Chenopodium album [5]) | GALAP control rating (0-9) (Galium aparine [6]) | GLXMA control rating (0-9) (Glycine max [7]) | GOSHI control rating (0-9) (Gossypium hirsutum [8]) | HORVW control rating (0-9) (Hordeum vulgare [9]) | IPOHE control rating (0-9) (Ipomoea hederacea [10]) | LAMPU control rating (0-9) (Lamium purpureum [11]) | MATIN control rating (0-9) (Matricaria inodora [12]) | PAPRH control rating (0-9) (Papaver rhoeas [13]) | SETVI control rating (0-9) (Setaria viridis [14]) | STEME control rating (0-9) (Stellaria media [15]) | TRZAW control rating (0-9) (Triticum aestivum [16]) | VERPE control rating (0-9) (Veronica persica [17]) | ZEAMX control rating (0-9) (Zea mays [18]) | ABUTH control rating (0-9) (Abutilon theophrasti [19]) | ALOMY control rating (0-9) (Alopecurus myosuroides [20]) | other results
O=C(NCc1cccs1)c1nnc(-c2ccccc2F)o1 [Example 11] | 0 (no effect) | 0 (no effect) | 7 (good herbicidal effect) | 0 (no effect) | 3 (moderate effect) | 0 (no effect) | 0 (no effect) | 0 (no effect) | 0 (no effect) | 0 (no effect) | 0 (no effect) | 2 (slight effect) | 8 (approaching complete kill) | 3 (moderate effect) | 7 (good herbicidal effect) | 0 (no effect) | 7 (good herbicidal effect) | 1 (trace effect) | 5 (definite injury) | 0 (no effect) | AMARE control rating (0-9) (Amaranthus retroflexus [21]): 9 (complete kill); AMBEL control rating (0-9) (Ambrosia artemisifolia [22]): 4 (injury); CHEAL control rating (0-9) (Chenopodium album [23]): 8 (approaching complete kill); GALAP control rating (0-9) (Galium aparine [24]): 0 (no effect); GLXMA control rating (0-9) (Glycine max [25]): 0 (no effect); GOSHI control rating (0-9) (Gossypium hirsutum [26]): 1 (trace effect); HORVW control rating (0-9) (Hordeum vulgare [27]): 0 (no effect); IPOHE control rating (0-9) (Ipomoea hederacea [28]): 0 (no effect); LAMPU control rating (0-9) (Lamium purpureum [29]): 0 (no effect); MATIN control rating (0-9) (Matricaria inodora [30]): 0 (no effect); PAPRH control rating (0-9) (Papaver rhoeas [31]): 7 (good herbicidal effect); SETVI control rating (0-9) (Setaria viridis [32]): 0 (no effect); STEME control rating (0-9) (Stellaria media [33]): 7 (good herbicidal effect); TRZAW control rating (0-9) (Triticum aestivum [34]): 0 (no effect); VERPE control rating (0-9) (Veronica persica [35]): 6 (herbicidal effect); ZEAMX control rating (0-9) (Zea mays [36]): 0 (no effect)
C[C@H](NC(=O)c1nnc(-c2ccc(Cl)cc2)o1)c1ccccc1 [Example 12] | 2 (slight effect) | 1 (trace effect) | 8 (approaching complete kill) | 0 (no effect) | 8 (approaching complete kill) | 0 (no effect) | 0 (no effect) | 0 (no effect) | 0 (no effect) | 0 (no effect) | 8 (approaching complete kill) | 7 (good herbicidal effect) | 9 (complete kill) | 9 (complete kill) | 9 (complete kill) | 0 (no effect) | 9 (complete kill) | 0 (no effect) | 9 (complete kill) | 3 (moderate effect) | AMARE control rating (0-9) (Amaranthus retroflexus [21]): 9 (complete kill); AMBEL control rating (0-9) (Ambrosia artemisifolia [22]): 7 (good herbicidal effect); CHEAL control rating (0-9) (Chenopodium album [23]): 9 (complete kill); GALAP control rating (0-9) (Galium aparine [24]): 6 (herbicidal effect); GLXMA control rating (0-9) (Glycine max [25]): 5 (definite injury); GOSHI control rating (0-9) (Gossypium hirsutum [26]): 9 (complete kill); HORVW control rating (0-9) (Hordeum vulgare [27]): 4 (injury); IPOHE control rating (0-9) (Ipomoea hederacea [28]): 9 (complete kill); LAMPU control rating (0-9) (Lamium purpureum [29]): 9 (complete kill); MATIN control rating (0-9) (Matricaria inodora [30]): 5 (definite injury); PAPRH control rating (0-9) (Papaver rhoeas [31]): 9 (complete kill); SETVI control rating (0-9) (Setaria viridis [32]): 9 (complete kill); STEME control rating (0-9) (Stellaria media [33]): 9 (complete kill); TRZAW control rating (0-9) (Triticum aestivum [34]): 2 (slight effect); VERPE control rating (0-9) (Veronica persica [35]): 9 (complete kill); ZEAMX control rating (0-9) (Zea mays [36]): 3 (moderate effect)
